Patent publication US5756327A, “Recombinant mycobacterial isoleucyl-tRNA synthetase genes, tester strains and assays” (priority 1995, dated 1998)

Tests used:
[1] = test system: E. coli DH5α cells expressing the M. tuberculosis IleRS gene (on pKS-56); type: cell-based
E. coli IleRS = details: Hughes and Mellows, Biochem. J. 176:305-318 (1978); cited from earlier work
[2] = test system: DH5α cells expressing wild-type IleRS on a plasmid (pKS21); assay: Pseudomonic acid (PMA) rescue, growth in liquid culture (A600); type: cell-based, E. coli; details: LB plus ampicillin media containing 40 μg/ml PMA; 30° C., 36-40 hours
[3] = test system: E. coli cells with the TB GST-IleRS fusion construct, pGX-56; type: cell-based; details: as for pKS-56: 40 μg/ml PMA, LB plus ampicillin

C/C(=C\C(=O)OCCCCCCCCC(=O)O)C[C@@H]1OC[C@H](C[C@@H]2O[C@H]2[C@@H](C)[C@H](C)O)[C@@H](O)[C@H]1O [PMA, pseudomonic acid A]
inhibition of growth ([1]; LB plus ampicillin media containing 40 μg/ml PMA, 30° C., 36-40 hours): no inhibition of growth
growth at highest concentration tested ([1]; LB plus ampicillin with 640 μg/ml PMA (higher concentrations were not tested)): continued to grow
sensitivity of E. coli IleRS to PMA (E. coli IleRS): extremely sensitive
inhibition of growth [2]: completely inhibited
inhibition of growth [3]: Identical results
